SMILES strings stand for the structures.

Holding throughout (assay type): cell-based
Data set [1] can be described thus: Toxicity in human SV589 cells assessed as cholesterol accumulation in lysosome at 2.5 uM incubated for 16 hrs by immunofluorescence based confocal microscopy. To be noted: sv-589, 16 h.
The target of data set [2] is T1, 3-hydroxy-3-methylglutaryl-coenzyme A reductase (Cricetulus griseus, UniProt P00347).
T1 sequence (P00347 whole entry): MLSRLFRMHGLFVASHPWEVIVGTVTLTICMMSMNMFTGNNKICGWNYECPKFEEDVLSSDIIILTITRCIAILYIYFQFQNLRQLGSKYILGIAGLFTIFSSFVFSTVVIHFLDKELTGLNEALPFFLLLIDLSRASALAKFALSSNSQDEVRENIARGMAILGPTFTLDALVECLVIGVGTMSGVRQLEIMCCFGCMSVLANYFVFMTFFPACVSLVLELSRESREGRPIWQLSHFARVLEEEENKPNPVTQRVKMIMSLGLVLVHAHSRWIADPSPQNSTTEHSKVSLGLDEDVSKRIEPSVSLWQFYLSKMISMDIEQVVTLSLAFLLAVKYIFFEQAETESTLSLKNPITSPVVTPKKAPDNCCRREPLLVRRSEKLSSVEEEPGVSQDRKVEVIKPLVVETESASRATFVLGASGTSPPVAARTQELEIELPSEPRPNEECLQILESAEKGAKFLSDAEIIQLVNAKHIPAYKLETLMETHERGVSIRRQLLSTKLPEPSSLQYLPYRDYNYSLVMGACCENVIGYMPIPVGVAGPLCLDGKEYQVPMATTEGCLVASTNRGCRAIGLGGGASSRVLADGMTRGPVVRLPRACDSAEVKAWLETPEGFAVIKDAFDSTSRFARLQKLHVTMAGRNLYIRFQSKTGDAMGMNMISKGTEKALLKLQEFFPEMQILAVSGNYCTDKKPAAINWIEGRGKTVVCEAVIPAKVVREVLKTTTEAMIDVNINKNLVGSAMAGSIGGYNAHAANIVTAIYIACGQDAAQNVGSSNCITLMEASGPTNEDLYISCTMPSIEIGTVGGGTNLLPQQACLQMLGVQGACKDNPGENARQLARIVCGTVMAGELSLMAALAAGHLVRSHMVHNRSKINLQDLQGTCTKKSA
Put plainly: Induction of degradation of hamster HMGCR (TM1-8)-GFP (1 to 346 residues) transfected in CHO-7 cells incubated for 16 hrs in sterol-depleted medium by fluorescence based microplate reader assay.

Data set [3] is described as follows: Toxicity in human SV589 cells assessed as cholesterol accumulation in lysosome at 10 uM incubated for 16 hrs by immunofluorescence based confocal microscopy. To be noted: sv-589, 16 h.

`CCN(CC)CCO[C@H]1CC[C@@]2(C)C(=CC[C@@H]3[C@@H]2CC[C@]2(C)C(=O)CC[C@@H]32)C1.Cl`: the Activity result in data set [1] is listed as “Toxic”.
In turn, `C[C@H](CCC(=O)O)[C@H]1CC[C@H]2[C@@H]3CC=C4C(C)(C)c5nonc5C[C@]4(C)[C@H]3CC[C@]12C` displayed an EC50 in data set [2] of 5.81 µM. In data set [3], the Activity entry is on record as “Non-Toxic”.
As for `CC(C)C(=O)n1cnc2c1C(C)(C)C1=CC[C@H]3[C@@H]4CC[C@H]([C@H](C)CCC(=O)N5CCOCC5)[C@@]4(C)CC[C@@H]3[C@@]1(C)C2`, a half-maximal response in data set [2] (EC50) required 0.43 µM. Also, the Activity entry in data set [3] is recorded as “Non-Toxic”.
